“And” between values parts separate entries of the source, which are not always exact repeats. Identical values can stand only once. Toxic doses and inconclusive results are not listed. How the source made its calls: active means survival T/C of 150% or more; inactive means T/C below 125% in these data. Non-standard residues stand in square brackets, D forms with d. Residues, ends and D or L forms follow the SMILES beside them. ξ: configuration not given here. *: point of attachment. Boc = CC(C)(C)OC(=O)*; ξP = O=C(O)C1CCCN1
System: CD2F1 mice, L1210 leukemia ip, survival T/C
Experiment: NCI In Vivo Anticancer Drug Screen. Data for tumor model L1210 Leukemia (intraperitoneal) in CD2F1 (CDF1) mice
Conditions: higher = longer survival
In short: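 In this screen, transplantable tumors were grown in mice given either the compound or its vehicle. Results were expressed as the treated measurement relative to the control measurement.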

[1] = endpoint: mean survival time, dose: 100.0 mg/kg/injection, schedule: Q04DX002 (ip), vehicle: saline with Tween-80
[2] = endpoint: mean survival time, dose: 200.0 mg/kg/injection, schedule: Q04DX002 (ip), vehicle: saline with Tween-80
[3] = endpoint: mean survival time, dose: 400.0 mg/kg/injection, schedule: Q04DX002 (ip), vehicle: saline with Tween-80
[4] = endpoint: mean survival time, dose: 6.25 mg/kg/injection, schedule: Q01DX009 (ip), vehicle: saline with Tween-80
[5] = endpoint: mean survival time, dose: 12.5 mg/kg/injection, schedule: Q01DX009 (ip), vehicle: saline with Tween-80
[6] = endpoint: mean survival time, dose: 25.0 mg/kg/injection, schedule: Q01DX009 (ip), vehicle: saline with Tween-80
[7] = endpoint: mean survival time, dose: 100.0 mg/kg/injection, schedule: Q01DX009 (ip), vehicle: saline with Tween-80
[8] = endpoint: mean survival time, dose: 100.0 mg/kg/injection, schedule: Q04DX003 (ip), vehicle: saline with Tween-80
[9] = endpoint: mean survival time, dose: 100.0 mg/kg/injection, schedule: Q04DX003 (ip), vehicle: saline
[10] = endpoint: mean survival time, dose: 200.0 mg/kg/injection, schedule: Q04DX003 (ip), vehicle: saline
[11] = endpoint: mean survival time, dose: 400.0 mg/kg/injection, schedule: Q04DX003 (ip), vehicle: saline
[12] = endpoint: mean survival time, dose: 100.0 mg/kg/injection, schedule: Q01DX001 (ip), vehicle: saline with Tween-80
[13] = endpoint: mean survival time, dose: 200.0 mg/kg/injection, schedule: Q01DX001 (ip), vehicle: saline with Tween-80
[14] = endpoint: mean survival time, dose: 200.0 mg/kg/injection, schedule: Q01DX009 (ip), vehicle: saline with Tween-80
[15] = endpoint: mean survival time, dose: 400.0 mg/kg/injection, schedule: Q01DX001 (ip), vehicle: saline with Tween-80
[16] = endpoint: mean survival time, dose: 400.0 mg/kg/injection, schedule: Q01DX009 (ip), vehicle: saline with Tween-80
[17] = endpoint: mean survival time, dose: 100.0 mg/kg/injection, schedule: Q01DX009 (ip), vehicle: saline
[18] = endpoint: mean survival time, dose: 200.0 mg/kg/injection, schedule: Q04DX003 (ip), vehicle: saline with Tween-80
[19] = endpoint: mean survival time, dose: 400.0 mg/kg/injection, schedule: Q04DX003 (ip), vehicle: saline with Tween-80
[20] = endpoint: mean survival time, dose: 3.12 mg/kg/injection, schedule: Q01DX009 (ip), vehicle: saline
[21] = endpoint: mean survival time, dose: 6.25 mg/kg/injection, schedule: Q01DX009 (ip), vehicle: saline
[22] = endpoint: mean survival time, dose: 12.5 mg/kg/injection, schedule: Q01DX009 (ip), vehicle: saline

Measured: T/C

COc1ccc(NC(=O)Oc2ccc(Cl)cc2C)cc1
inactive: [1] 91 % of control | [2] 94 % of control | [3] 91 % of control

CN(C)CCCN=Cc1ccccc1O.CN(C)CCCN=Cc1ccccc1O.[Ni+2]
inactive: [4] 100 % of control | [5] 101 % of control | [6] 89 % of control

C/C(=C\Cl)CN(C)C
inactive: endpoint: mean survival time, dose: 50.0 mg/kg/injection, schedule: Q01DX009 (ip), vehicle: acetone 97 % of control | endpoint: mean survival time, dose: 100.0 mg/kg/injection, schedule: Q01DX009 (ip), vehicle: acetone 103 % of control

CC(C)Cc1ccc(OC(=O)Nc2ccc(Cl)cc2)cc1
inactive: [6] 106 % of control | endpoint: mean survival time, dose: 50.0 mg/kg/injection, schedule: Q01DX009 (ip), vehicle: saline with Tween-80 94 % of control | [7] 95 % of control | [8] 86 % of control

COc1ccc(C(C)O)cc1 (stereo not drawn)
inactive: [1] 104 % of control | [2] 93 % of control | [3] 97 % of control

CCOC(=O)C1(C2=NC(C)(C)CC(C)O2)CCCCC1 (stereo not drawn)
inactive: endpoint: mean survival time, dose: 100.0 mg/kg/injection, schedule: Q04DX003 (ip), vehicle: acetone 96 % of control | endpoint: mean survival time, dose: 200.0 mg/kg/injection, schedule: Q04DX003 (ip), vehicle: acetone 90 % of control | endpoint: mean survival time, dose: 400.0 mg/kg/injection, schedule: Q04DX003 (ip), vehicle: acetone 105 % of control

COc1cc(/C=C(\C#N)c2ccc([N+](=O)[O-])cc2)ccc1O
inactive: [1] 100 % of control | [2] 87 % of control | [3] 91 % of control

COC(=O)CNC(=O)C1CCCN1C(=O)OC(C)(C)C (stereo not drawn) (Boc-[ξP]-Gly-OMe)
inactive: [9] 94 % of control | [10] 97 % of control | [11] 107 % of control

O=[N+]([O-])c1ccc2c([N+](=O)[O-])cc(O)cc2c1
inactive: [12] 95 % of control | [7] 96 % of control | [13] 105 % of control | [14] 96 % of control | [15] 100 % of control | [16] 98 % of control

O=C(N1CCOCC1)C1(c2ccccc2)CCNCC1
inactive: endpoint: mean survival time, dose: 50.0 mg/kg/injection, schedule: Q01DX009 (ip), vehicle: saline 93 % of control | [17] 104 % of control

O=C(OCCC[P+](c1ccccc1)(c1ccccc1)c1ccccc1)c1ccccc1
inactive: endpoint: mean survival time, dose: 6.25 mg/kg/injection, schedule: Q01DX001 (ip), vehicle: saline with Tween-80 109 % of control | [4] 110 % of control | endpoint: mean survival time, dose: 12.5 mg/kg/injection, schedule: Q01DX001 (ip), vehicle: saline with Tween-80 114 % of control | [5] 114 % of control | endpoint: mean survival time, dose: 25.0 mg/kg/injection, schedule: Q01DX001 (ip), vehicle: saline with Tween-80 115 % of control | [6] 112 % of control

COC(=O)C(N)CSCc1ccccc1 (stereo not drawn)
inactive: endpoint: mean survival time, dose: 100.0 mg/kg/injection, schedule: Q01DX001 (ip), vehicle: saline 100 % of control | [17] 102 % of control | endpoint: mean survival time, dose: 200.0 mg/kg/injection, schedule: Q01DX009 (ip), vehicle: saline 97 % of control | endpoint: mean survival time, dose: 400.0 mg/kg/injection, schedule: Q01DX001 (ip), vehicle: saline 100 % of control | endpoint: mean survival time, dose: 400.0 mg/kg/injection, schedule: Q01DX009 (ip), vehicle: saline 98 % of control

O=C(C[n+]1cccc(C(=O)NCc2ccccc2)c1)Nc1ccc(Cl)cc1
inactive: [9] 94 % of control

O=C1CCCC[CH]1[Hg][Cl] (stereo not drawn)
inactive: endpoint: mean survival time, dose: 1.25 mg/kg/injection, schedule: Q01DX009 (ip), vehicle: saline 95 % of control | endpoint: mean survival time, dose: 2.5 mg/kg/injection, schedule: Q01DX009 (ip), vehicle: saline 107 % of control

CN(C)CC(N)C(=O)O (stereo not drawn)
inactive: endpoint: mean survival time, dose: 50.0 mg/kg/injection, schedule: Q04DX002 (ip), vehicle: saline 89 % of control | endpoint: mean survival time, dose: 100.0 mg/kg/injection, schedule: Q04DX002 (ip), vehicle: saline 92 % of control

CSc1nc(Cl)c2cc(C)[nH]c2n1
inactive: endpoint: median survival time, dose: 50.0 mg/kg/injection, schedule: Q01DX005 (ip), vehicle: saline 98 % of control | endpoint: median survival time, dose: 100.0 mg/kg/injection, schedule: Q01DX005 (ip), vehicle: saline 100 % of control | endpoint: median survival time, dose: 200.0 mg/kg/injection, schedule: Q01DX005 (ip), vehicle: saline 94 % of control

CCCCNC(=O)Nc1ccc(Cl)cc1
inactive: [12] 88 % of control | [13] 86 % of control | [15] 88 % of control

CC(=O)Nc1cccc(NC(C)=O)n1
inactive: [7] 95 % of control | [14] 94 % of control | [16] 91 % of control

CSc1cccc(NC2=NCCO2)c1
inactive: [8] 90 % of control | [18] 93 % of control | [19] 86 % of control

C[N+](C)(CCCCCC[N+](C)(C)Cc1ccccc1)Cc1ccccc1
inactive: endpoint: mean survival time, dose: 1.25 mg/kg/injection, schedule: Q01DX009 (ip), vehicle: saline with Tween-80 93 % of control | endpoint: mean survival time, dose: 2.5 mg/kg/injection, schedule: Q01DX009 (ip), vehicle: saline with Tween-80 93 % of control | endpoint: mean survival time, dose: 5.0 mg/kg/injection, schedule: Q01DX009 (ip), vehicle: saline with Tween-80 93 % of control | endpoint: median survival time, dose: 0.63 mg/kg/injection, schedule: Q04DX002 (ip), vehicle: saline with Tween-80 112 % of control | endpoint: median survival time, dose: 1.25 mg/kg/injection, schedule: Q04DX002 (ip), vehicle: saline with Tween-80 100 % of control | endpoint: median survival time, dose: 2.5 mg/kg/injection, schedule: Q04DX002 (ip), vehicle: saline with Tween-80 100 % of control | endpoint: median survival time, dose: 5.0 mg/kg/injection, schedule: Q04DX002 (ip), vehicle: saline with Tween-80 100 % of control

C#CCCCCCCCCCCC1(c2ccccc2)OCCO1
inactive: endpoint: mean survival time, dose: 100.0 mg/kg/injection, schedule: Q04DX003 (ip), vehicle: Klucel (hydroxypropylcellulose) (HPC) 94 % of control | endpoint: mean survival time, dose: 200.0 mg/kg/injection, schedule: Q04DX003 (ip), vehicle: Klucel (hydroxypropylcellulose) (HPC) 97 % of control | endpoint: mean survival time, dose: 400.0 mg/kg/injection, schedule: Q04DX003 (ip), vehicle: Klucel (hydroxypropylcellulose) (HPC) 95 % of control

CC1=C(O)C(=O)[C@@H]2O[C@@H]2C1=O
inactive: endpoint: mean survival time, dose: 0.78 mg/kg/injection, schedule: Q01DX009 (ip), vehicle: saline 98 % of control and 102 % of control | endpoint: mean survival time, dose: 1.56 mg/kg/injection, schedule: Q01DX009 (ip), vehicle: saline 101 % of control and 102 % of control | [20] 96 % of control and 107 % of control | [21] 98 % of control and 108 % of control | [22] 108 % of control | endpoint: mean survival time, dose: 25.0 mg/kg/injection, schedule: Q01DX009 (ip), vehicle: saline 87 % of control

OCCN1CCN(CC/C=C2\c3ccccc3Sc3ccc(Cl)cc32)CC1
inactive: [20] 102 % of control | [21] 116 % of control | [22] 122 % of control

CC(C)NC(=O)CCCn1c(=O)c2ccccc2c(=O)n1C
inactive: endpoint: mean survival time, dose: 25.0 mg/kg/injection, schedule: Q04DX003 (ip), vehicle: saline 104 % of control | endpoint: mean survival time, dose: 50.0 mg/kg/injection, schedule: Q04DX003 (ip), vehicle: saline 96 % of control | [9] 101 % of control | [10] 96 % of control | [11] 98 % of control

COC(=O)COc1cccc(NC(=O)CC(=O)c2cccc([N+](=O)[O-])c2)c1
inactive: endpoint: mean survival time, dose: 100.0 mg/kg/injection, schedule: Q01DX009 (ip), vehicle: Klucel (hydroxypropylcellulose) (HPC) 98 % of control | [8] 101 % of control | endpoint: mean survival time, dose: 200.0 mg/kg/injection, schedule: Q01DX009 (ip), vehicle: Klucel (hydroxypropylcellulose) (HPC) 97 % of control | [18] 98 % of control | endpoint: mean survival time, dose: 400.0 mg/kg/injection, schedule: Q01DX009 (ip), vehicle: Klucel (hydroxypropylcellulose) (HPC) 96 % of control | [19] 93 % of control

Cc1oc2ccc(NS(=O)(=O)c3ccccc3)cc2c1C(=O)O
inactive: [8] 97 % of control

CN1CCC(CNC(=O)CCCCCCCCC(=O)NCC2(c3ccccc3)CCN(C)CC2)(c2ccccc2)CC1
inactive: endpoint: mean survival time, dose: 1.25 mg/kg/injection, schedule: Q04DX003 (ip), vehicle: saline with Tween-80 95 % of control | endpoint: mean survival time, dose: 2.5 mg/kg/injection, schedule: Q04DX003 (ip), vehicle: saline with Tween-80 94 % of control

Source: PubChem BioAssay AID256 (DTP/NCI, 2004)
